Assay results taken from US20230339900A1, “CASEIN KINASE 1 DELTA MODULATORS” (Janssen Pharmaceutica NV, priority 2020, published 2023).
pIC50: −log10 of the molar value. Structures can show the parent of a compound that is named as a salt.

Columns and labels:
[1] = target: human CSNK1D tagged with nanoluciferase (Homo sapiens (Human), UniProt P48730); assay: Whole Cell nBRET CSNK1D Binding Assay; conditions: living CHO cells stably expressing human CSNK1D-nanoluciferase; NanoBret tracer 130 nM; 2 hours 37° C.; read-out: CSNK1D BRET IC50
Chain of human CSNK1D tagged with nanoluciferase (P48730 whole entry, the tested form may be a part): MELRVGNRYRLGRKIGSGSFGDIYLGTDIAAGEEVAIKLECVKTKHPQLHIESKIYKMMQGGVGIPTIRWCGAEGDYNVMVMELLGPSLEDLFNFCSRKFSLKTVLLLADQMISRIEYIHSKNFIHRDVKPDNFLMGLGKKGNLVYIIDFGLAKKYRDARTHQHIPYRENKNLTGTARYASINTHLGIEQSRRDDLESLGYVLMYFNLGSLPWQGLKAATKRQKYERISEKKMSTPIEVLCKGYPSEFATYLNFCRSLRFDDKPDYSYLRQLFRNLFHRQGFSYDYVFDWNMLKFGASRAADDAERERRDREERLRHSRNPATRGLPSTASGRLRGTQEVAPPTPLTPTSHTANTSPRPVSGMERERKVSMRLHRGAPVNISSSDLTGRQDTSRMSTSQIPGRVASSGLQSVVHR
Method in brief: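 IC50 values come from milliBRET ratios ((E630/E450)*1000) fitted against log compound concentration. Tracer displacement was run in living CHO cells stably expressing NanoLuc-fused CSNK1D, with dosed compounds and 130 nM tracer incubated 2 h at 37 °C in serum-free OptiMEM before substrate addition and donor/acceptor reading.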

[2] = target: human recombinant GST cleaved CSNK1D (Homo sapiens (Human), UniProt P48730); assay: Purified enzyme assay (ADP-Glo Kinase Assay); format: biochemical; conditions: 2 nM CSNK1D, peptide substrate 150 μM, ATP 20 μM, 45 minutes room temperature
Chain of human recombinant GST cleaved CSNK1D (P48730 whole entry): as the sequence (P48730 whole entry, the tested form may be a part) above

`Cn1cc(-c2ccnc3cc(Br)cnc23)c(-c2ccc(F)cn2)n1` [Example 153, 3-Bromo-8-[3-(5-fluoro-2-pyridyl)-1-methyl-pyrazol-4-yl]-1,5-naphthyridine] gave a pIC50 [1] of 6.24 and an AC50 [2] of 39 nM.

`FCCn1cc(-c2ccnc3[nH]ccc23)c(-c2ccc(F)cn2)n1` [Example 68, 4-[1-(2-Fluoroethyl)-3-(5-fluoro-2-pyridyl)pyrazol-4-yl]-1H-pyrrolo[2,3-b]pyridine] showed a pIC50 [1] of 7.10 and an AC50 [2] of 4 nM.

Work on `Cn1cc(-c2ccnc3cnccc23)c(-c2ccc(F)cn2)n1` [Example 112, 4-[3-(5-Fluoro-2-pyridyl)-1-methyl-pyrazol-4-yl]-1,7-naphthyridine] yielded a pIC50 [1] of 6.02 and an AC50 [2] of 51 nM.

Work on `Cc1nc(-c2cn(C)nc2-c2ccc(F)cn2)c2cc[nH]c2n1` [Example 123, 4-[3-(5-Fluoro-2-pyridyl)-1-methyl-pyrazol-4-yl]-2-methyl-7H-pyrrolo[2,3-d]pyrimidine Trifluoroacetate Salt] yielded a pIC50 [1] of 6.63 and an AC50 [2] of 4 nM.

Work on `Cn1cc(-c2ccnc3ccccc23)c(-c2ccc(F)cn2)n1` [Example 104, 4-[3-(5-Fluoro-2-pyridyl)-1-methyl-pyrazol-4-yl]quinoline] yielded a pIC50 [1] of 5.88 and an AC50 [2] of 170 nM.

Work on `Cn1cc(-c2ccnc3c(F)cccc23)c(-c2ccc(F)cn2)n1` [Example 147, 8-Fluoro-4-[3-(5-fluoro-2-pyridyl)-1-methyl-pyrazol-4-yl]quinoline] yielded a pIC50 [1] of under 5.00 and an AC50 [2] of 1100 nM.

`Cn1cc(-c2ccnc3c2CNC3)c(-c2ccc(F)cn2)n1` [Example 117, 4-(3-(5-Fluoropyridin-2-yl)-1-methyl-1H-pyrazol-4-yl)-6,7-dihydro-5H-pyrrolo[3,4-b]pyridine] showed a pIC50 [1] of under 5.00 and an AC50 [2] of 101 nM.

`Cn1cc(-c2ccnc3[nH]cc(C(F)(F)F)c23)c(-c2ccc(F)cn2)n1` [Example 86, 4-(3-(5-Fluoropyridin-2-yl)-1-methyl-1H-pyrazol-4-yl)-3-(trifluoromethyl)-1H-pyrrolo[2,3-b]pyridine] showed a pIC50 [1] of 5.98 and an AC50 [2] of 48 nM.

Work on `Cc1ccnc2c(-c3cn(C)nc3-c3ccc(F)cn3)ccnc12` [Example 133, 4-[3-(5-Fluoro-2-pyridyl)-1-methyl-pyrazol-4-yl]-8-methyl-1,5-naphthyridine] yielded a pIC50 [1] of under 5.00 and an AC50 [2] of 7030 nM.

Molecule `Cn1cc(-c2ccnc3ccc(C#N)cc23)c(-c2ccc(F)cn2)n1` [Example 150, 4-[3-(5-Fluoro-2-pyridyl)-1-methyl-pyrazol-4-yl]quinoline-6-carbonitrile] has a pIC50 [1] of 5.74 and an AC50 [2] of 113 nM.

In the case of `Cn1cc(-c2ccnc3[nH]ncc23)c(-c2ccc(F)cn2)n1` [Example 98, 4-(3-(5-Fluoropyridin-2-yl)-1-methyl-1H-pyrazol-4-yl)-1H-pyrazolo[3,4-b]pyridine], the pIC50 [1] was 5.63 and the AC50 [2] was 76 nM.

Work on `Cc1cc(-c2cn(C)nc2-c2c(C)cncc2F)c2cn[nH]c2n1` [Example 140, 4-[3-(3-Fluoro-5-methyl-4-pyridyl)-1-methyl-pyrazol-4-yl]-6-methyl-1H-pyrazolo[3,4-b]pyridine] yielded a pIC50 [1] of under 5.00 and an AC50 [2] of 1170 nM.

`Cc1ccc2nccc(-c3cn(C)nc3-c3ccc(F)cn3)c2n1` [Example 131, 8-[3-(5-Fluoro-2-pyridyl)-1-methyl-pyrazol-4-yl]-2-methyl-1,5-naphthyridine] gave a pIC50 [1] of 5.35 and an AC50 [2] of 310 nM.

With `COc1ccc2nccc(-c3cn(C)nc3-c3ccc(F)cn3)c2c1` [Example 129, 4-[3-(5-Fluoro-2-pyridyl)-1-methyl-pyrazol-4-yl]-6-methoxy-quinoline] the pIC50 [1] was 6.11 and the AC50 [2] was 109 nM.

`Cn1cc(-c2ccnc3[nH]ccc23)c(-c2cnccn2)n1` [Example 46, 4-(1-Methyl-3-pyrazin-2-yl-pyrazol-4-yl)-1H-pyrrolo[2,3-b]pyridine] was tested, and the pIC50 [1] was 5.66 and the AC50 [2] was 84 nM.

In the case of `Cc1cc(-c2cn(C)nc2-c2ccc(Cl)c(C)n2)c2cn[nH]c2n1` [Example 39, 4-(3-(5-Chloro-6-methylpyridin-2-yl)-1-methyl-1H-pyrazol-4-yl)-6-methyl-1H-pyrazolo[3,4-b]pyridine], the pIC50 [1] was 5.49 and the AC50 [2] was 128 nM.

Work on `Cc1cc(-c2cn(C3COC3)nc2-c2ccc(F)cn2)c2cn[nH]c2n1` [Example 73, 4-(3-(5-Fluoropyridin-2-yl)-1-(oxetan-3-yl)-1H-pyrazol-4-yl)-6-methyl-1H-pyrazolo[3,4-b]pyridine] yielded a pIC50 [1] of 6.24 and an AC50 [2] of 20 nM.

`Cn1cc(-c2ccnc3[nH]cc(Br)c23)c(-c2ccc(F)cn2)n1` [Example 75, 3-Bromo-4-[3-(5-fluoro-2-pyridyl)-1-methyl-pyrazol-4-yl]-1H-pyrrolo[2,3-b]pyridine] showed a pIC50 [1] of 7.62 and an AC50 [2] of 1 nM.

Molecule `COc1cccc(-c2nn(C)cc2-c2cc(C)nc3[nH]ncc23)n1` [Example 34, 4-(3-(6-Methoxypyridin-2-yl)-1-methyl-1H-pyrazol-4-yl)-6-methyl-1H-pyrazolo[3,4-b]pyridine] has a pIC50 [1] of 5.70 and an AC50 [2] of 100 nM.

For `Cc1cc(-c2cn(CC3COC3)nc2-c2ccc(F)cn2)c2cn[nH]c2n1` [Example 50, 4-[3-(5-Fluoro-2-pyridyl)-1-(oxetan-3-ylmethyl)pyrazol-4-yl]-6-methyl-1H-pyrazolo[3,4-b]pyridine], the pIC50 [1] was 6.91 and the AC50 [2] was 5 nM.

`Cc1cc(-c2cn(C(F)F)nc2-c2ccc(F)cn2)c2cn[nH]c2n1` [Example 67, 4-(1-(Difluoromethyl)-3-(5-fluoropyridin-2-yl)-1H-pyrazol-4-yl)-6-methyl-1H-pyrazolo[3,4-b]pyridine] gave a pIC50 [1] of 5.88 and an AC50 [2] of 18 nM.

Molecule `Cc1ccc(-c2nn(C)cc2-c2ccnc3[nH]ccc23)nc1` [Example 31, 4-[1-Methyl-3-(5-methyl-2-pyridyl)pyrazol-4-yl]-1H-pyrrolo[2,3-b]pyridine] has a pIC50 [1] of 5.51 and an AC50 [2] of 50 nM.

With `CC(C)Cn1cc(-c2ccnc3[nH]ccc23)c(-c2ccc(F)cn2)n1` [Example 61, 4-[3-(5-Fluoro-2-pyridyl)-1-isobutyl-pyrazol-4-yl]-1H-pyrrolo[2,3-b]pyridine] the pIC50 [1] was 6.94 and the AC50 [2] was 14 nM.

Molecule `CCn1cc(-c2cc(C)nc3[nH]ncc23)c(-c2ccc(F)cn2)n1` [Example 57, 4-(1-Ethyl-3-(5-fluoropyridin-2-yl)-1H-pyrazol-4-yl)-6-methyl-1H-pyrazolo[3,4-b]pyridine] has a pIC50 [1] of 6.66 and an AC50 [2] of 14 nM.

With `Cn1cc(-c2ccnc3[nH]ncc23)c(-c2ccc(Cl)cn2)n1` [Example 25, 4-(3-(5-Chloropyridin-2-yl)-1-methyl-1H-pyrazol-4-yl)-1H-pyrazolo[3,4-b]pyridine] the pIC50 [1] was 6.51 and the AC50 [2] was 693 nM.

With `Cn1cc(-c2ccnc3[nH]ccc23)c(-c2cncs2)n1` [Example 14, 5-(1-Methyl-4-(1H-pyrrolo[2,3-b]pyridin-4-yl)-1H-pyrazol-3-yl)thiazole] the pIC50 [1] was 5.50 and the AC50 [2] was 83 nM.

Work on `Cc1cncc(-c2nn(C)cc2-c2cc(C)nc3[nH]ncc23)c1` [Example 137, 6-Methyl-4-[1-methyl-3-(5-methyl-3-pyridyl)pyrazol-4-yl]-1H-pyrazolo[3,4-b]pyridine] yielded a pIC50 [1] of 6.05 and an AC50 [2] of 38 nM.

`Cn1cc(-c2ccnc3sccc23)c(-c2ccc(F)cn2)n1` [Example 145, 4-[3-(5-Fluoro-2-pyridyl)-1-methyl-pyrazol-4-yl]thieno[2,3-b]pyridine] was tested, and the pIC50 [1] was 6.11 and the AC50 [2] was 40 nM.

`Fc1ccc(-c2nn(C(F)F)cc2-c2ccnc3[nH]ccc23)nc1` [Example 65, 4-[1-(Difluoromethyl)-3-(5-fluoro-2-pyridyl)pyrazol-4-yl]-1H-pyrrolo[2,3-b]pyridine] showed a pIC50 [1] of 6.77 and an AC50 [2] of 21 nM.

`COc1cnc2c(-c3cn(C)nc3-c3ccc(F)cn3)ccnc2c1` [Example 155, 8-[3-(5-Fluoro-2-pyridyl)-1-methyl-pyrazol-4-yl]-3-methoxy-1,5-naphthyridine] was tested, and the pIC50 [1] was 6.50 and the AC50 [2] was 22 nM.

Molecule `CC(=O)Nc1cc(-c2cn(C)nc2-c2ccc(F)cn2)ccn1` [Example 115, N-(4-(3-(5-Fluoropyridin-2-yl)-1-methyl-1H-pyrazol-4-yl)pyridin-2-yl)acetamide] has a pIC50 [1] of 6.50 and an AC50 [2] of 9 nM.

Molecule `COc1cc2nccc(-c3cn(C)nc3-c3ccc(F)cn3)c2cn1` [Example 154, 4-[3-(5-Fluoro-2-pyridyl)-1-methyl-pyrazol-4-yl]-7-methoxy-1,6-naphthyridine] has a pIC50 [1] of 6.28 and an AC50 [2] of 25 nM.

Molecule `Cn1cc(-c2ccnc3[nH]ccc23)c(-c2ccc(Cl)cn2)n1` [Example 24, 4-[3-(5-Chloro-2-pyridyl)-1-methyl-pyrazol-4-yl]-1H-pyrrolo[2,3-b]pyridine] has a pIC50 [1] of 6.60 and an AC50 [2] of 34 nM.

`Cc1cc(-c2cn(C3CC3)nc2-c2ccc(F)cn2)c2cn[nH]c2n1` [Example 134, 4-[1-Cyclopropyl-3-(5-fluoro-2-pyridyl)pyrazol-4-yl]-6-methyl-1H-pyrazolo[3,4-b]pyridine] gave a pIC50 [1] of 6.48 and an AC50 [2] of 30 nM.

In the case of `Cn1cc(-c2ccnc3c2CC(=O)N3)c(-c2ccc(F)cn2)n1` [Example 3, 4-(3-(5-Fluoropyridin-2-yl)-1-methyl-1H-pyrazol-4-yl)-1,3-dihydro-2H-pyrrolo[2,3-b]pyridin-2-one], the pIC50 [1] was 5.82 and the AC50 [2] was 58 nM.

Molecule `COc1cccc2c(-c3cn(C)nc3-c3ccc(F)cn3)ccnc12` [Example 148, 4-[3-(5-Fluoro-2-pyridyl)-1-methyl-pyrazol-4-yl]-8-methoxy-quinoline] has a pIC50 [1] of under 5.00 and an AC50 [2] of 7090 nM.

`Cn1cc(-c2nc(C3CC3)nc3[nH]ccc23)c(-c2ccc(F)cn2)n1` [Example 125, 2-Cyclopropyl-4-[3-(5-fluoro-2-pyridyl)-1-methyl-pyrazol-4-yl]-7H-pyrrolo[2,3-d]pyrimidine] was tested, and the pIC50 [1] was 5.72 and the AC50 [2] was 66 nM.

For `Cc1cc(-c2cn(C)nc2-c2ccc(F)cn2)c2cc[nH]c2n1` [Example 80, 4-[3-(5-Fluoro-2-pyridyl)-1-methyl-pyrazol-4-yl]-6-methyl-1H-pyrrolo[2,3-b]pyridine], the pIC50 [1] was 7.39 and the AC50 [2] was 1 nM.
